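48-hour exposure; five concentrations; linearly interpolated endpoints. GI50 = concentration required for 50% inhibition of growth. At the TGI there is no net growth.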
What was measured:
Assay in all cases: NCI anticancer screen, dose series, 48 h
[1] = system: CAKI-1 renal
[2] = system: DU-145 prostate
[3] = system: IGROV1 ovarian
[4] = system: SK-OV-3 ovarian
[5] = system: HS 578T breast
[6] = system: BT-549 breast
[7] = system: TK-10 renal
[8] = system: NCI-H460 lung
[9] = system: OVCAR-5 ovarian
[10] = system: UACC-62 melanoma
[11] = system: EKVX NSCLC
[12] = system: A498 renal
[13] = system: NCI-H23 lung
[14] = system: OVCAR-3 ovarian
[15] = system: SNB-75 CNS
[16] = system: RPMI-8226 leukemia
[17] = system: CCRF-CEM leukemia
[18] = system: MDA-MB-231 breast
[19] = system: SF-295 CNS
[20] = system: OVCAR-4 ovarian
[21] = system: SK-MEL-2 melanoma
[22] = system: HOP-62 NSCLC
[23] = system: HCT-15 colon
[24] = system: SK-MEL-5 melanoma
[25] = system: T-47D breast
[26] = system: MCF7 breast
[27] = system: ACHN renal
[28] = system: M14 melanoma
[29] = system: RXF 393 renal
[30] = system: KM12 colon
[31] = system: MOLT-4 leukemia
[32] = system: K-562 leukemia
[33] = system: U251 CNS
[34] = system: SN12C renal
[35] = system: SF-539 CNS
[36] = system: HT29 colon
[37] = system: HOP-92 NSCLC
[38] = system: SK-MEL-28 melanoma
[39] = system: COLO 205 colon
[40] = system: MALME-3M melanoma
[41] = system: PC-3 prostate
[42] = system: MDA-MB-435
[43] = system: UO-31 renal
[44] = system: SF-268 CNS
[45] = system: SNB-19 CNS
[46] = system: A549 NSCLC
[47] = system: LOX IMVI melanoma
[48] = system: NCI-H522 lung
[49] = system: NCI-H226 lung
[50] = system: 786-0 renal
[51] = system: HCC-2998 colon
[52] = system: SW-620 colon
[53] = system: UACC-257 melanoma
[54] = system: HCT-116 colon
[55] = system: OVCAR-8 ovarian
[56] = system: NCI/ADR-RES ovarian

SMILES: CC1SC(c2ccc(Cl)cc2Cl)N(NC(=O)C(O)c2ccccc2)C1=O (stereo not drawn)
- GI50 [1]: 60.1 µM
- TGI [1]: > 100 µM
- GI50 [2]: > 100 µM
- TGI [2]: > 100 µM
- GI50 [3]: 22.7 µM
- TGI [3]: 76.9 µM
- GI50 [4]: > 100 µM
- TGI [4]: > 100 µM
- GI50 [5]: > 100 µM
- TGI [5]: > 100 µM
- GI50 [6]: > 100 µM
- TGI [6]: > 100 µM
- GI50 [7]: 61.2 µM
- TGI [7]: > 100 µM
- GI50 [8]: 47.7 µM
- TGI [8]: > 100 µM
- GI50 [9]: > 100 µM
- TGI [9]: > 100 µM
- GI50 [10]: 24.2 µM
- TGI [10]: > 100 µM
- GI50 [11]: 68.8 µM
- TGI [11]: > 100 µM
- GI50 [12]: > 100 µM
- TGI [12]: > 100 µM
- GI50 [13]: 64.1 µM
- TGI [13]: > 100 µM
- GI50 [14]: 28.7 µM
- TGI [14]: > 100 µM
- GI50 [15]: 32.1 µM
- TGI [15]: > 100 µM
- GI50 [16]: 38.9 µM
- TGI [16]: > 100 µM
- GI50 [17]: 65.4 µM
- TGI [17]: > 100 µM
- GI50 [18]: 46.2 µM
- TGI [18]: > 100 µM
- GI50 [19]: 23.7 µM
- TGI [19]: > 100 µM
- GI50 [20]: 28.5 µM
- TGI [20]: 98.5 µM
- GI50 [21]: > 100 µM
- TGI [21]: > 100 µM
- GI50 [22]: > 100 µM
- TGI [22]: > 100 µM
- GI50 [23]: 61.3 µM
- TGI [23]: > 100 µM
- GI50 [24]: 58.6 µM
- TGI [24]: > 100 µM
- GI50 [25]: > 100 µM
- TGI [25]: > 100 µM
- GI50 [26]: 57 µM
- TGI [26]: > 100 µM
- GI50 [27]: 48.4 µM
- TGI [27]: > 100 µM
- GI50 [28]: 42.9 µM
- TGI [28]: > 100 µM
- GI50 [29]: 42.9 µM
- TGI [29]: > 100 µM
- GI50 [30]: 51.2 µM
- TGI [30]: > 100 µM
- GI50 [31]: 34.5 µM
- TGI [31]: > 100 µM
- GI50 [32]: 39.7 µM
- TGI [32]: > 100 µM
- GI50 [33]: 61.4 µM
- TGI [33]: > 100 µM
- GI50 [34]: 85.4 µM
- TGI [34]: > 100 µM
- GI50 [35]: > 100 µM
- TGI [35]: > 100 µM
- GI50 [36]: 41.9 µM
- TGI [36]: > 100 µM
- GI50 [37]: 35.9 µM
- TGI [37]: > 100 µM
- GI50 [38]: 76.1 µM
- TGI [38]: > 100 µM
- GI50 [39]: > 100 µM
- TGI [39]: > 100 µM
- GI50 [40]: 70.3 µM
- TGI [40]: > 100 µM
- GI50 [41]: 42.3 µM
- TGI [41]: > 100 µM
- GI50 [42]: 74.7 µM
- TGI [42]: > 100 µM
- GI50 [43]: 48.9 µM
- TGI [43]: > 100 µM
- GI50 [44]: 81.3 µM
- TGI [44]: > 100 µM
- GI50 [45]: > 100 µM
- TGI [45]: > 100 µM
- GI50 [46]: 33.9 µM
- TGI [46]: > 100 µM
- GI50 [47]: > 100 µM
- TGI [47]: > 100 µM
- GI50 [48]: 41.9 µM
- TGI [48]: > 100 µM
- GI50 [49]: 44.1 µM
- TGI [49]: > 100 µM
- GI50 [50]: > 100 µM
- TGI [50]: > 100 µM
- GI50 [51]: > 100 µM
- TGI [51]: > 100 µM
- GI50 [52]: > 100 µM
- TGI [52]: > 100 µM
- GI50 [53]: 61.7 µM
- TGI [53]: > 100 µM
- GI50 [54]: 62 µM
- TGI [54]: > 100 µM
- GI50 [55]: 63.4 µM
- TGI [55]: > 100 µM

SMILES: N#CC1=C(N)NC(=O)NC12Nc1ccccc1N2
- GI50 [1]: > 100 µM
- TGI [1]: > 100 µM
- GI50 [2]: > 100 µM
- TGI [2]: > 100 µM
- GI50 [3]: > 100 µM
- TGI [3]: > 100 µM
- GI50 [4]: > 100 µM
- TGI [4]: > 100 µM
- GI50 [5]: > 100 µM
- TGI [5]: > 100 µM
- GI50 [6]: > 100 µM
- TGI [6]: > 100 µM
- GI50 [7]: > 100 µM
- TGI [7]: > 100 µM
- GI50 [8]: > 100 µM
- TGI [8]: > 100 µM
- GI50 [9]: > 100 µM
- TGI [9]: > 100 µM
- GI50 [10]: > 100 µM
- TGI [10]: > 100 µM
- GI50 [11]: > 100 µM
- TGI [11]: > 100 µM
- GI50 [12]: > 100 µM
- TGI [12]: > 100 µM
- GI50 [13]: > 100 µM
- TGI [13]: > 100 µM
- GI50 [14]: > 100 µM
- TGI [14]: > 100 µM
- GI50 [15]: 45.2 µM
- TGI [15]: > 100 µM
- GI50 [16]: > 100 µM
- TGI [16]: > 100 µM
- GI50 [56]: > 100 µM
- TGI [56]: > 100 µM
- GI50 [18]: > 100 µM
- TGI [18]: > 100 µM
- GI50 [19]: > 100 µM
- TGI [19]: > 100 µM
- GI50 [20]: > 100 µM
- TGI [20]: > 100 µM
- GI50 [21]: > 100 µM
- TGI [21]: > 100 µM
- GI50 [22]: > 100 µM
- TGI [22]: > 100 µM
- GI50 [23]: > 100 µM
- TGI [23]: > 100 µM
- GI50 [24]: > 100 µM
- TGI [24]: > 100 µM
- GI50 [25]: > 100 µM
- TGI [25]: > 100 µM
- GI50 [26]: > 100 µM
- TGI [26]: > 100 µM
- GI50 [27]: > 100 µM
- TGI [27]: > 100 µM
- GI50 [28]: > 100 µM
- TGI [28]: > 100 µM
- GI50 [29]: > 100 µM
- TGI [29]: > 100 µM
- GI50 [30]: > 100 µM
- TGI [30]: > 100 µM
- GI50 [31]: > 100 µM
- TGI [31]: > 100 µM
- GI50 [32]: > 100 µM
- TGI [32]: > 100 µM
- GI50 [33]: > 100 µM
- TGI [33]: > 100 µM
- GI50 [34]: > 100 µM
- TGI [34]: > 100 µM
- GI50 [35]: > 100 µM
- TGI [35]: > 100 µM
- GI50 [36]: > 100 µM
- TGI [36]: > 100 µM
- GI50 [37]: 31.3 µM
- TGI [37]: > 100 µM
- GI50 [38]: > 100 µM
- TGI [38]: > 100 µM
- GI50 [39]: > 100 µM
- TGI [39]: > 100 µM
- GI50 [40]: > 100 µM
- TGI [40]: > 100 µM
- GI50 [41]: > 100 µM
- TGI [41]: > 100 µM
- GI50 [42]: > 100 µM
- TGI [42]: > 100 µM
- GI50 [44]: > 100 µM
- TGI [44]: > 100 µM
- GI50 [45]: > 100 µM
- TGI [45]: > 100 µM
- GI50 [46]: > 100 µM
- TGI [46]: > 100 µM
- GI50 [47]: > 100 µM
- TGI [47]: > 100 µM
- GI50 [48]: > 100 µM
- TGI [48]: > 100 µM
- GI50 [49]: > 100 µM
- TGI [49]: > 100 µM
- GI50 [50]: > 100 µM
- TGI [50]: > 100 µM
- GI50 [51]: > 100 µM
- TGI [51]: > 100 µM
- GI50 [52]: > 100 µM
- TGI [52]: > 100 µM
- GI50 [53]: > 100 µM
- TGI [53]: > 100 µM
- GI50 [54]: > 100 µM
- TGI [54]: > 100 µM
- GI50 [55]: > 100 µM
- TGI [55]: > 100 µM

— PubChem BioAssay (NCI)
